Assay results taken from patent US10213433B2 (AbbVie Inc., priority 2010, dated 2019).
pKi: −log10 of the molar value.

biological target: Bcl-2 protein (Homo sapiens (Human), UniProt P10415); experiment: Bcl-2 binding TR-FRET (Time-Resolved Fluorescence-Resonance-Energy-Transfer) assay; conditions: inhibition constant for binding to Bcl-2 protein
From the text: The smaller the Ki value, the greater is the binding affinity.

Bcl-2 protein, sequence (P10415 whole entry): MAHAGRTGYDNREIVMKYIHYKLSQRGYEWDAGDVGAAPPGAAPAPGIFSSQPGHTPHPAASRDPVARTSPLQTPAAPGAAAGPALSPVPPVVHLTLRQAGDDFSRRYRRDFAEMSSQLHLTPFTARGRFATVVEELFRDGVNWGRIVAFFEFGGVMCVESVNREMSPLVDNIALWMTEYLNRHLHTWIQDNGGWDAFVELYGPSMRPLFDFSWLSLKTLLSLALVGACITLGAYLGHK

SMILES | pKi
CC1(C)CCC(CN2CCN(c3ccc(C(=O)NS(=O)(=O)c4ccc(NC[C@H]5CC[C@@H](O)C5)c([N+](=O)[O-])c4)c(Oc4cnc5[nH]ccc5c4)c3)CC2)=C(c2ccc(Cl)cc2)C1 [Compound 158, 4-(4-{[2-(4-chlorophenyl)-4,4-dimethylcyclohex-1-en-1-yl]methyl}piperazin-1-yl)-N-{[4-({[(1S,3R)-3-hydroxycyclopentyl]methyl}amino)-3-nitrophenyl]sulfonyl}-2-(1H-pyrrolo[2,3-b]pyridin-5-yloxy)benzamide] | > 11.00
CC1(C)CCC(CN2CCN(c3ccc(C(=O)NS(=O)(=O)c4ccc(NC[C@@H]5CC[C@H](O)C5)c([N+](=O)[O-])c4)c(Oc4cnc5[nH]ccc5c4)c3)CC2)=C(c2ccc(Cl)cc2)C1 [Compound 159, 4-(4-{[2-(4-chlorophenyl)-4,4-dimethylcyclohex-1-en-1-yl]methyl}piperazin-1-yl)-N-{[4-({[(1R,3S)-3-hydroxycyclopentyl]methyl}amino)-3-nitrophenyl]sulfonyl}-2-(1H-pyrrolo[2,3-b]pyridin-5-yloxy)benzamide] | > 11.00
CC1(C)CCC(CN2CCN(c3ccc(C(=O)NS(=O)(=O)c4ccc(N[C@H]5CCCNC5=O)c([N+](=O)[O-])c4)c(Oc4cnc5[nH]ccc5c4)c3)CC2)=C(c2ccc(Cl)cc2)C1 [Compound 160, 4-(4-{[2-(4-chlorophenyl)-4,4-dimethylcyclohex-1-en-1-yl]methyl}piperazin-1-yl)-N-[(3-nitro-4-{[(3S)-2-oxopiperidin-3-yl]amino}phenyl)sulfonyl]-2-(1H-pyrrolo[2,3-b]pyridin-5-yloxy)benzamide] | > 11.00
CC1(C)CCC(CN2CCN(c3ccc(C(=O)NS(=O)(=O)c4ccc(NCC5CN(C(CF)CF)C5)c([N+](=O)[O-])c4)c(Oc4cnc5[nH]ccc5c4)c3)CC2)=C(c2ccc(Cl)cc2)C1 [Compound 161, 4-(4-{[2-(4-chlorophenyl)-4,4-dimethylcyclohex-1-en-1-yl]methyl}piperazin-1-yl)-N-({4-[({1-[2-fluoro-1-(fluoromethyl)ethyl]azetidin-3-yl}methyl)amino]-3-nitrophenyl}sulfonyl)-2-(1H-pyrrolo[2,3-b]pyridin-5-yloxy)benzamide] | > 11.00
CC1(C)CCC(CN2CCN(c3ccc(C(=O)NS(=O)(=O)c4ccc(NCC5CN(C6COC6)C5)c([N+](=O)[O-])c4)c(Oc4cnc5[nH]ccc5c4)c3)CC2)=C(c2ccc(Cl)cc2)C1 [Compound 162, 4-(4-{[2-(4-chlorophenyl)-4,4-dimethylcyclohex-1-en-1-yl]methyl}piperazin-1-yl)-N-[(3-nitro-4-{[(1-oxetan-3-ylazetidin-3-yl)methyl]amino}phenyl)sulfonyl]-2-(1H-pyrrolo[2,3-b]pyridin-5-yloxy)benzamide] | > 11.00
CC1(C)CCC(CN2CCN(c3ccc(C(=O)NS(=O)(=O)c4ccc(NCC5CCN(C6COC6)CC5)c([N+](=O)[O-])c4)c(Oc4cnc5[nH]ccc5c4)c3)CC2)=C(c2ccc(Cl)cc2)C1 [Compound 163, 4-(4-{[2-(4-chlorophenyl)-4,4-dimethylcyclohex-1-en-1-yl]methyl}piperazin-1-yl)-N-[(3-nitro-4-{[(1-oxetan-3-ylpiperidin-4-yl)methyl]amino}phenyl)sulfonyl]-2-(1H-pyrrolo[2,3-b]pyridin-5-yloxy)benzamide] | > 11.00
CC1(C)CCC(CN2CCN(c3ccc(C(=O)NS(=O)(=O)c4ccc(NCC5CCN(C6CC6)CC5)c([N+](=O)[O-])c4)c(Oc4cnc5[nH]ccc5c4)c3)CC2)=C(c2ccc(Cl)cc2)C1 [Compound 164, 4-(4-{[2-(4-chlorophenyl)-4,4-dimethylcyclohex-1-en-1-yl]methyl}piperazin-1-yl)-N-[(4-{[(1-cyclopropylpiperidin-4-yl)methyl]amino}-3-nitrophenyl)sulfonyl]-2-(1H-pyrrolo[2,3-b]pyridin-5-yloxy)benzamide] | > 11.00
CC1(C)CCC(CN2CCN(c3ccc(C(=O)NS(=O)(=O)c4ccc(NCC5CN(CCF)CCO5)c([N+](=O)[O-])c4)c(Oc4cnc5[nH]ccc5c4)c3)CC2)=C(c2ccc(Cl)cc2)C1 (stereo not shown) [Compound 165, 4-(4-{[2-(4-chlorophenyl)-4,4-dimethylcyclohex-1-en-1-yl]methyl}piperazin-1-yl)-N-{[4-({[4-(2-fluoroethyl)morpholin-2-yl]methyl}amino)-3-nitrophenyl]sulfonyl}-2-(1H-pyrrolo[2,3-b]pyridin-5-yloxy)benzamide] | > 11.00
CC1(C)CCC(CN2CCN(c3ccc(C(=O)NS(=O)(=O)c4ccc(NCC5CN(CC(F)F)CCO5)c([N+](=O)[O-])c4)c(Oc4cnc5[nH]ccc5c4)c3)CC2)=C(c2ccc(Cl)cc2)C1 (stereo not shown) [Compound 166, 4-(4-{[2-(4-chlorophenyl)-4,4-dimethylcyclohex-1-en-1-yl]methyl}piperazin-1-yl)-N-{[4-({[4-(2,2-difluoroethyl)morpholin-2-yl]methyl}amino)-3-nitrophenyl]sulfonyl}-2-(1H-pyrrolo[2,3-b]pyridin-5-yloxy)benzamide] | > 11.00
CC1(C)CCC(CN2CCN(c3ccc(C(=O)NS(=O)(=O)c4ccc(OCC5(F)CCN(C6COC6)CC5)c([N+](=O)[O-])c4)c(Oc4cnc5[nH]ccc5c4)c3)CC2)=C(c2ccc(Cl)cc2)C1 [Compound 167, 4-(4-{[2-(4-chlorophenyl)-4,4-dimethylcyclohex-1-en-1-yl]methyl}piperazin-1-yl)-N-({4-[(4-fluoro-1-oxetan-3-ylpiperidin-4-yl)methoxy]-3-nitrophenyl}sulfonyl)-2-(1H-pyrrolo[2,3-b]pyridin-5-yloxy)benzamide] | > 11.00
CC1(C)CCC(CN2CCN(c3ccc(C(=O)NS(=O)(=O)c4ccc(OC[C@@H]5CC(F)(F)CN5C5COC5)c([N+](=O)[O-])c4)c(Oc4cnc5[nH]ccc5c4)c3)CC2)=C(c2ccc(Cl)cc2)C1 [Compound 168, 4-(4-{[2-(4-chlorophenyl)-4,4-dimethylcyclohex-1-en-1-yl]methyl}piperazin-1-yl)-N-[(4-{[(2S)-4,4-difluoro-1-oxetan-3-ylpyrrolidin-2-yl]methoxy}-3-nitrophenyl)sulfonyl]-2-(1H-pyrrolo[2,3-b]pyridin-5-yloxy)benzamide] | > 11.00
CC1(C)CCC(CN2CCN(c3ccc(C(=O)NS(=O)(=O)c4ccc(NCC5COCCN5C5CCOC5)c([N+](=O)[O-])c4)c(Oc4cnc5[nH]ccc5c4)c3)CC2)=C(c2ccc(Cl)cc2)C1 (stereo not shown) [Compound 171, 4-(4-{[2-(4-chlorophenyl)-4,4-dimethylcyclohex-1-en-1-yl]methyl}piperazin-1-yl)-N-[(3-nitro-4-{[(4-tetrahydrofuran-3-ylmorpholin-3-yl)methyl]amino}phenyl)sulfonyl]-2-(1H-pyrrolo[2,3-b]pyridin-5-yloxy)benzamide] | > 11.00
CC1(C)CCC(CN2CCN(c3ccc(C(=O)NS(=O)(=O)c4ccc(NCC5CCN(C(CF)CF)CC5)c([N+](=O)[O-])c4)c(Oc4cnc5[nH]ccc5c4)c3)CC2)=C(c2ccc(Cl)cc2)C1 [Compound 172, 4-(4-{[2-(4-chlorophenyl)-4,4-dimethylcyclohex-1-en-1-yl]methyl}piperazin-1-yl)-N-({4-[({1-[2-fluoro-1-(fluoromethyl)ethyl]piperidin-4-yl}methyl)amino]-3-nitrophenyl}sulfonyl)-2-(1H-pyrrolo[2,3-b]pyridin-5-yloxy)benzamide] | > 11.00
